Results taken from patent US10954210B2, “Crystal form of tipifarnib and preparation method and pharmaceutical composition thereof” (Hangzhou SoliPharma Co., Ltd., priority 2016, dated 2021).
Entries after “also recorded” stand apart in the source; their conditions may differ.

Experiments:
Format in all cases: physicochemical
[1] = Slurry experiment in water (stirred 3 days at room temperature, XRD); conditions: stirred in water at room temperature for 3 days, by XRD
Description: (§1) Instruments and characterization methods: • X-ray powder diffraction (XRPD): performed on Bruder D8 Advance diffractometer. The samples were tested at room temperature under the following conditions: scan range 3-40° 2θ, step size 0.02° 2θ, and speed 0.2 s/step.

[2] = Phase and chemical stability experiments (10 days storage, XRD and purity); conditions: for Form (10 days test results): by XRD; for crystalline form after storage / purity change after storage: 10 days at 60° C. dry condition and 40° C./75% RH condition
Description: as §1

[3] = Dynamic vapor sorption / isothermal sorption
Description: Dynamic vapor sorption data and isothermal sorption data were collected on TA Instruments Q5000 TGA. Method: place 1 mg to 10 mg sample into a platinum pan; the weight change of the sample during the change in relative humidity from 0% to 80% to 0% was measured.

## Cn1cncc1[C@@](N)(c1ccc(Cl)cc1)c1ccc2c(c1)c(-c1cccc(Cl)c1)cc(=O)n2C [Form III, (R)-6-(amino(4-chlorophenyl)(1-methyl-1H-imidazol-5-yl)methyl)-4-(3-chlorophenyl)-1-methyl-2(1H)-quinolinone]
[1]
  Test results: crystalline form after stirring in water: remained unchanged
[1]; listed as Tipifarnib Form III
  Test results: crystalline form after stirring in water: Tipifarnib Form III
[2]; 40° C./75% RH
  Purity (%) (10 days test results): 99.80%
  Form (10 days test results): Tipifarnib Form III
[2]; 60° C./drying
  Purity (%) (10 days test results): 99.80%
  Form (10 days test results): Tipifarnib Form III
[2]
  crystalline form after storage: remained their original forms; also recorded: remained its original form
  purity change after storage: essentially did not decrease; also recorded: essentially did not change

## Cn1cncc1[C@@](N)(c1ccc(Cl)cc1)c1ccc2c(c1)c(-c1cccc(Cl)c1)cc(=O)n2C [Form II, (R)-6-(amino(4-chlorophenyl)(1-methyl-1H-imidazol-5-yl)methyl)-4-(3-chlorophenyl)-1-methyl-2(1H)-quinolinone]
[1]
  Test results: crystalline form after stirring in water: remained unchanged
[1]; listed as Tipifarnib Form II
  Test results: crystalline form after stirring in water: Tipifarnib Form II
[2]; 40° C./75% RH
  Purity (%) (10 days test results): 99.86%
  Form (10 days test results): Tipifarnib Form II
[2]; 60° C./drying
  Purity (%) (10 days test results): 99.84%
  Form (10 days test results): Tipifarnib Form II
[2]
  crystalline form after storage: remained their original forms; also recorded: remained its original form
  purity change after storage: essentially did not decrease; also recorded: essentially did not change

## Cn1cncc1[C@@](N)(c1ccc(Cl)cc1)c1ccc2c(c1)c(-c1cccc(Cl)c1)cc(=O)n2C [Form I, (R)-6-(amino(4-chlorophenyl)(1-methyl-1H-imidazol-5-yl)methyl)-4-(3-chlorophenyl)-1-methyl-2(1H)-quinolinone]
[1]
  Test results: crystalline form after stirring in water: remain unchanged
[1]; listed as Tipifamib Form I
  Test results: crystalline form after stirring in water: Tipifamib Form I
[3]; between 20 to 80% RH
  weight change (isothermal sorption plot): less than 0.2%
[3]; isothermal sorption plot, 20 to 80% RH
  hygroscopicity: not hygroscopic
[2]; 40° C./75% RH
  Purity (%) (10 days test results): 99.61%
  Form (10 days test results): Tipifarnib Form I
[2]; 60° C./drying
  Purity (%) (10 days test results): 99.72%
  Form (10 days test results): Tipifarnib Form I
[2]
  crystalline form after storage: remained its original form; also recorded: remained their original forms
  purity change after storage: essentially did not change; also recorded: essentially did not decrease

## Cn1cncc1[C@@](N)(c1ccc(Cl)cc1)c1ccc2c(c1)c(-c1cccc(Cl)c1)cc(=O)n2C [Form IV, (R)-6-(amino(4-chlorophenyl)(1-methyl-1H-imidazol-5-yl)methyl)-4-(3-chlorophenyl)-1-methyl-2(1H)-quinolinone]
[1]
  Test results: crystalline form after stirring in water: remained unchanged
[1]; listed as Tipifarnib Form IV
  Test results: crystalline form after stirring in water: Tipifarnib Form IV
[2]; 40° C./75% RH
  Purity (%) (10 days test results): 99.73%
  Form (10 days test results): Tipifarnib Form IV
[2]; 60° C./drying
  Purity (%) (10 days test results): 99.85%
  Form (10 days test results): Tipifarnib Form IV
[2]
  crystalline form after storage: remained their original forms; also recorded: remained its original form
  purity change after storage: essentially did not decrease; also recorded: essentially did not change

## Cn1cncc1[C@@](N)(c1ccc(Cl)cc1)c1ccc2c(c1)c(-c1cccc(Cl)c1)cc(=O)n2C [Form A, (R)-6-(amino(4-chlorophenyl)(1-methyl-1H-imidazol-5-yl)methyl)-4-(3-chlorophenyl)-1-methyl-2(1H)-quinolinone, reference compound]
[1]
  Test results: crystalline form after stirring in water: transformed to tipifanib Form I
[1]; listed as Tipifarnib Form A
  Test results: crystalline form after stirring in water: Tipifarnib Form I
